The results in this text go back to the supplement of paper PMC6411743.

Compound in the assay: Nc1ncnc2c1ncn2[C@@H]1O[C@H](COP(=O)(O)OP(=O)(O)OP(=O)(O)O)[C@@H](O)[C@H]1O [adenosine triphosphate]
Put plainly: pEC50 of ATP-induced change in protein thermal stability (2D-TPP). The method, boiled down:
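Jurkat crude lysate was treated for 10 min at room temperature with five concentrations including vehicle, heated to 12 temperatures (42–63.9 °C) for 3 min, and given NP40 and benzonase (60 min, 4 °C). After ultracentrifugation, soluble protein was quantified by TMT LC-MS/MS, with fold changes against vehicle per temperature, median-normalised. pEC50 comes from dose-response fits per replicate over adjacent temperature pairs, with hits called by permutation-based false discovery rate control. Three independent experiments.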
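Further: lysate dosed with Na-ATP at 0 0.005 0.05 0.5 and 2 mM.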

Chain of UniProt Q9Y266 (Q9Y266 whole entry): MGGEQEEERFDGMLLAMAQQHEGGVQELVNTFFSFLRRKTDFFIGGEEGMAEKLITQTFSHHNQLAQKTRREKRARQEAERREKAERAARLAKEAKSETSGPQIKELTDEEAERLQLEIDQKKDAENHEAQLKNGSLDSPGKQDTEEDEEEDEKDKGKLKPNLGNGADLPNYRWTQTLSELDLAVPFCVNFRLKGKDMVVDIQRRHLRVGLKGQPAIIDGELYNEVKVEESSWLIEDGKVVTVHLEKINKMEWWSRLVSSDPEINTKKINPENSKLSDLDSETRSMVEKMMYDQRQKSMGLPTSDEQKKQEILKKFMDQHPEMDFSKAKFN
Chain of UniProt Q9BPW8 (Q9BPW8 whole entry): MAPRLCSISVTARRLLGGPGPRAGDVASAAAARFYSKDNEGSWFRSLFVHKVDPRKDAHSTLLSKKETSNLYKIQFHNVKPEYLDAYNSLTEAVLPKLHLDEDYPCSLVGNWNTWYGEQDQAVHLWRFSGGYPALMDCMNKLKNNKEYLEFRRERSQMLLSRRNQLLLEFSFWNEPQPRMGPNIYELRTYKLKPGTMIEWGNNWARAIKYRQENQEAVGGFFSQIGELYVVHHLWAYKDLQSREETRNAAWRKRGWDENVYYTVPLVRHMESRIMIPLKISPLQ
Chain of UniProt Q8WUM0 (Q8WUM0 whole entry): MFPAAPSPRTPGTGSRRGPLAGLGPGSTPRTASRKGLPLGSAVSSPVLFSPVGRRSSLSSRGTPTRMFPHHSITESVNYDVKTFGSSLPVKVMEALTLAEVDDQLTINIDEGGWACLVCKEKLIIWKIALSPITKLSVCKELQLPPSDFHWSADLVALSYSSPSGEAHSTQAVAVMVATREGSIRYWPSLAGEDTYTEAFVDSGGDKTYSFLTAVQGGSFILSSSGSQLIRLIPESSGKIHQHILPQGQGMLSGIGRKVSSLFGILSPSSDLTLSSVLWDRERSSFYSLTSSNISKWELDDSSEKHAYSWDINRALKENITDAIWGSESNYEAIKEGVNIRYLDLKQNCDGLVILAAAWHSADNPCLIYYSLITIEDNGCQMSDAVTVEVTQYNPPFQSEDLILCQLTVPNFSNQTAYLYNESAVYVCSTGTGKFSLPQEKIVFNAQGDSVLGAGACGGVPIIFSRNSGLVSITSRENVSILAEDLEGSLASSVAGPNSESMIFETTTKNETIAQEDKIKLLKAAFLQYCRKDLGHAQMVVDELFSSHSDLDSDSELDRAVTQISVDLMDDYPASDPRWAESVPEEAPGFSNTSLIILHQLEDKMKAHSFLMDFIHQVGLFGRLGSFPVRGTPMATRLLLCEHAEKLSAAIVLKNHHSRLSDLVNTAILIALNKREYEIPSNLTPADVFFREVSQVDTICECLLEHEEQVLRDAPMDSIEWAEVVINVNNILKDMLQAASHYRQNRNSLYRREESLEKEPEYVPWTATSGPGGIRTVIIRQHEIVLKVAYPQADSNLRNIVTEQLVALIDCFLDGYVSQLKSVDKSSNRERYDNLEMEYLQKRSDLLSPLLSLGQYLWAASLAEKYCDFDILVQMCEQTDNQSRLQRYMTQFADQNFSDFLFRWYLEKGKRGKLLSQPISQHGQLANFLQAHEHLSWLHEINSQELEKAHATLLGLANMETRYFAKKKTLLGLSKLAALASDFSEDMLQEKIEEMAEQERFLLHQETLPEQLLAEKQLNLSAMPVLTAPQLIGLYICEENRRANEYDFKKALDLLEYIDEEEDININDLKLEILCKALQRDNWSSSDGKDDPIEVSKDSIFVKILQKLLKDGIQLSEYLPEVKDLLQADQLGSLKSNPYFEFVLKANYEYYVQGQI
Chain of UniProt Q13469 (Q13469 whole entry): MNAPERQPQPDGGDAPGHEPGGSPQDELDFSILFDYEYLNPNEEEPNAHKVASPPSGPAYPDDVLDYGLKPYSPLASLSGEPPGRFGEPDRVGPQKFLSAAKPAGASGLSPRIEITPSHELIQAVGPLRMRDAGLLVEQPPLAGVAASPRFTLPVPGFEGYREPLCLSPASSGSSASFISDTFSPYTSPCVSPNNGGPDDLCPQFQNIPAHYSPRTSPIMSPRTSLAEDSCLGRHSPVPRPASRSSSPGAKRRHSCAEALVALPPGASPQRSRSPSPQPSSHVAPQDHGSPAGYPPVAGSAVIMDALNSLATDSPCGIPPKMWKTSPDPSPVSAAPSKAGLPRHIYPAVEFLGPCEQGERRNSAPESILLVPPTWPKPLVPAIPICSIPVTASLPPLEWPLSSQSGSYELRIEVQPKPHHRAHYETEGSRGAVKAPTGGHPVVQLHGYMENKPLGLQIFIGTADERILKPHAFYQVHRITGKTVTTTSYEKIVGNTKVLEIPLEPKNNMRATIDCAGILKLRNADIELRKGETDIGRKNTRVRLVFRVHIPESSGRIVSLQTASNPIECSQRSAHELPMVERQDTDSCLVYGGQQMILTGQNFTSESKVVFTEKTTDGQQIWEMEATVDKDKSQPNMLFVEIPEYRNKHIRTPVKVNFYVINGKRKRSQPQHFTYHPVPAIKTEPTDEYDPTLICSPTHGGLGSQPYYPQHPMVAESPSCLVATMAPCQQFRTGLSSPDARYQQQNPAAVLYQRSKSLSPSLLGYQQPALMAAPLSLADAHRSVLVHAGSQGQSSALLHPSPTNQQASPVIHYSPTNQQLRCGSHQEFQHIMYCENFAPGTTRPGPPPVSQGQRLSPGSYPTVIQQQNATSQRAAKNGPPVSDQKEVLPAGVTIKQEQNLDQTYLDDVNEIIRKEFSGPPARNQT
Chain of UniProt P30414 (P30414 whole entry): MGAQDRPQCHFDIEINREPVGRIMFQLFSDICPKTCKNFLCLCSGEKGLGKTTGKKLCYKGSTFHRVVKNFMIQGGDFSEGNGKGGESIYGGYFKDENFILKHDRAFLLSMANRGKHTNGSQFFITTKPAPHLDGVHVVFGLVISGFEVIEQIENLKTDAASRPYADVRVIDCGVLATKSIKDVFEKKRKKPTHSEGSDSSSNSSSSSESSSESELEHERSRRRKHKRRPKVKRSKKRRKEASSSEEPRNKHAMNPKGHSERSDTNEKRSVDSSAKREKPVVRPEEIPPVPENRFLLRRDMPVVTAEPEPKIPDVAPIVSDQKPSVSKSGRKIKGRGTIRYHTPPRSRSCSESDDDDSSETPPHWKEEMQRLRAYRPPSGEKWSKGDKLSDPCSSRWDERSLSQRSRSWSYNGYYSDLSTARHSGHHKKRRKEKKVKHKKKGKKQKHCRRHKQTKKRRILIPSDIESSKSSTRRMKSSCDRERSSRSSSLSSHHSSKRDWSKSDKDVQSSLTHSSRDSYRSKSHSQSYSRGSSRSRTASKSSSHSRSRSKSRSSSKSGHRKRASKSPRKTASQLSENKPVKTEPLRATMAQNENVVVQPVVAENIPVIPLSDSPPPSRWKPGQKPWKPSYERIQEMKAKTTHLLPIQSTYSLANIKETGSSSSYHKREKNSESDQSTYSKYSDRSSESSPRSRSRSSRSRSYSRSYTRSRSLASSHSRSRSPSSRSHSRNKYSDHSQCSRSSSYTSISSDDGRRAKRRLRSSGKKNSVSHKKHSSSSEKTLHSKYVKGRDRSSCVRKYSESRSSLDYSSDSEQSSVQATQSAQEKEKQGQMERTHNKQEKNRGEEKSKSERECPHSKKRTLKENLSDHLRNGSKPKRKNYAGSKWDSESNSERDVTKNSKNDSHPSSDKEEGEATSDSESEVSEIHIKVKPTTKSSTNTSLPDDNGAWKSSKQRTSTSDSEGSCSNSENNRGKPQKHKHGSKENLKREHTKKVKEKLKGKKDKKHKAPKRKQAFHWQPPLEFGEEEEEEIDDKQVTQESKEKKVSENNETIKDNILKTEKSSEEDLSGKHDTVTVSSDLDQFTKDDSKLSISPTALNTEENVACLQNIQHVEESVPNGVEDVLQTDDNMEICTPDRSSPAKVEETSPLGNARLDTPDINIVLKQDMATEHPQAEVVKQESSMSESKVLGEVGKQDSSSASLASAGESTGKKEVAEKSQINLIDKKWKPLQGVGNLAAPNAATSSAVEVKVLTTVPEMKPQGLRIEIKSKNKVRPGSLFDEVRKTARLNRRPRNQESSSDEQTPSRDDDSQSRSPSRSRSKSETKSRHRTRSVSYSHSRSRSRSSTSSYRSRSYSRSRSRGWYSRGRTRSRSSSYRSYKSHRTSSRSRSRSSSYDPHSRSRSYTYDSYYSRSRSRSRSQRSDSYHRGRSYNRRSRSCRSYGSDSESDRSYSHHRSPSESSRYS
Chain of UniProt Q16656 (Q16656 whole entry): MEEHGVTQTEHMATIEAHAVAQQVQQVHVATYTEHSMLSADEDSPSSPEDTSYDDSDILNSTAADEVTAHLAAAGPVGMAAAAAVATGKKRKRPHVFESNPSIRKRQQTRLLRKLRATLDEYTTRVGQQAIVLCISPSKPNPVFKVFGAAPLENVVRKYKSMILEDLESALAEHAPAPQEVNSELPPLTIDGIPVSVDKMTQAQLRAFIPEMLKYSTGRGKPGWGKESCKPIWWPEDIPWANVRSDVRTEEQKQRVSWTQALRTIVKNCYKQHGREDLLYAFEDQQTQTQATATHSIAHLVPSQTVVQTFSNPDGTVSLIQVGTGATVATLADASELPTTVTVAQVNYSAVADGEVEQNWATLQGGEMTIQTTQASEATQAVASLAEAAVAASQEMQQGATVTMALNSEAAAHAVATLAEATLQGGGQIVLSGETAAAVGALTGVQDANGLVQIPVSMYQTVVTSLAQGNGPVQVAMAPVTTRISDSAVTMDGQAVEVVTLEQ
Chain of UniProt P50583 (P50583 whole entry): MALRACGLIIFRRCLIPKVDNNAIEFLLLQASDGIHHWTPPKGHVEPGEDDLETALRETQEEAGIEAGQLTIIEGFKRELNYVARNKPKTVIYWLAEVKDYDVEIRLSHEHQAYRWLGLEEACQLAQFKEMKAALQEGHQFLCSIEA
Chain of UniProt Q8WUY8 (Q8WUY8 whole entry): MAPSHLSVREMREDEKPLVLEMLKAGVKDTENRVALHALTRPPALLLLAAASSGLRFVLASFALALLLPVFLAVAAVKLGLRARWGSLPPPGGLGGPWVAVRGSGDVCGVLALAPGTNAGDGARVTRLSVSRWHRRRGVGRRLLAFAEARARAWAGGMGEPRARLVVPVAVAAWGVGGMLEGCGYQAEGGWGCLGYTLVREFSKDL

By pEC50 is commonly meant the EC50 on a negative log10 scale, so that one unit is a factor of ten. For “NAPA (effect direction: destabilized) (UniProt P54920)”, the pEC50 amounted to 4.56. The figure for “NARS2 (effect direction: stabilized) (UniProt Q96I59)” is 4.1; for “NAT14 (effect direction: stabilized) (UniProt Q8WUY8)” it is 3.34. The figure for “NCAPD2 (effect direction: stabilized) (UniProt Q15021)” is 3.56; for “NCAPG (effect direction: stabilized) (UniProt Q9BPX3)” it is 3.93; for “NCAPH (effect direction: stabilized) (UniProt Q15003)” it is 3.5. To “NCL (effect direction: stabilized) (UniProt P19338)” belongs below 2.7; to “NEDD8 (effect direction: destabilized) (UniProt Q15843)”, 3.02; to “NEK9 (effect direction: stabilized) (UniProt Q8TD19)”, 3.19. Consider “NFATC2 (effect direction: stabilized) (UniProt Q13469)”, for which the pEC50 was 3.21. To “NFKB1 (effect direction: stabilized) (UniProt P19838)” belongs 3.66; to “NIPSNAP1 (effect direction: stabilized) (UniProt Q9BPW8)”, 3.75; to “NKTR (effect direction: stabilized) (UniProt P30414)”, 3.22. The figure for “NMNAT1 (effect direction: stabilized) (UniProt Q9HAN9)” is 3.08.

Regarding “NMT1 (effect direction: stabilized) (UniProt P30419)”, the pEC50 was 3.06. To “NOP2 (effect direction: destabilized) (UniProt P46087)” belongs 2.94; to “NPM1 (effect direction: stabilized) (UniProt P06748)”, 2.88; to “NPM3 (effect direction: stabilized) (UniProt O75607)”, below 2.7. In the case of “NRF1 (effect direction: stabilized) (UniProt Q16656)”, the pEC50 stood at 2.97. The figure for “NSDHL (effect direction: stabilized) (UniProt Q15738)” is below 2.7. Turning to “NT5C2 (effect direction: stabilized) (UniProt P49902)”, the pEC50 came to 2.82. Regarding “NT5DC2 (effect direction: stabilized) (UniProt Q9H857)”, the pEC50 was below 2.7. On to “NUBP1 (effect direction: stabilized) (UniProt P53384)”, for which the negative logarithm of the EC50 (pEC50) was determined as 3.44. The figure for “NUDC (effect direction: stabilized) (UniProt Q9Y266)” is below 2.7; for “NUDT2 (effect direction: stabilized) (UniProt P50583)” it is 3.31. The figure for “NUMB (effect direction: stabilized) (UniProt P49757)” is 3.45; for “NUP85 (effect direction: stabilized) (UniProt Q9BW27)” it is below 2.7. The figure for “NUP133 (effect direction: stabilized) (UniProt Q8WUM0)” is 2.84; for “NUP188 (effect direction: stabilized) (UniProt Q5SRE5)” it is below 2.7; for “NUP210 (effect direction: stabilized) (UniProt Q8TEM1)” it is below 2.7. As for “OGDH (effect direction: stabilized) (UniProt Q02218)”, the pEC50 is 3.3. To “OPA1 (effect direction: destabilized) (UniProt O60313)” belongs 3.09; to “ORC6 (effect direction: stabilized) (UniProt Q9Y5N6)”, 3.73; to “OSBPL8 (effect direction: stabilized) (UniProt Q9BZF1)”, 3.4.
